According to patent publication US5736161A, “Pharmaceutical preparation for improving the bioavailability of drugs which are difficult to absorb and a procedure for obtaining it” (Lipotec S.A., priority 1993, dated 1998):

How the values were obtained:
Xa = experiment: Bioavailability test in dogs: anti-Xa activity in the plasma, ex-vivo chromogenic test (Coatest); design: species or system dog
Description: Bioavailability tests on the capsules prepared according to examples 1 and 2.
(§1) Bioavailability studies in which the animals received 40 mg of heparin by the oral route or 10 mg by the subcutaneous route over a period of three days.
(§2) Four dogs (2 for each treatment), each approximately 15 kg in weight.
A bioassay (anti-Xa activity) was used to measure the concentrations in the plasma.
The anti-Xa activity in the plasma was measured ex-vivo using a chromogenic test using a commercially available kit (Coatest) and expressed in IU/ml. The values were calculated from a calibration curve obtained in-vitro by adding different quantities of SLMWH to dog plasma.
The blood was extracted from the femoral vein. Starting on the second day of experiments samples were collected before and 1, 2, 3, 4 and 6 hours after oral or subcutaneous administration, sodium citrate was added to the samples (9 vol. sangre:1 vol. 3.8% sodium citrate) followed by centrifuging at 1200 rpm for 20 minutes at 4° C. The plasma was separated immediately and the anti-Xa activity was tested.

[1] = Urine analysis by proton NMR after chondroitinase AC treatment; format: in vivo, dog; conditions: chondroitinase AC treated, route not distinguished
Description: as §1, §2
(§3) The urine samples were treated with chondroitinase AC to eliminate the endogenous chondroitins. The residue was analyzed by means of proton NMR and HPLC (to determine the molecular weight).

[2] = Urine analysis by HPLC (molecular weight) after chondroitinase AC treatment; format: in vivo, dog; conditions: chondroitinase AC treated, route not distinguished
Description: as §1, §2, §3

[3] = oral, capsules (examples 1 and 2), 40 mg heparin, second day
[4] = subcutaneous, 10 mg heparin, second day

## sodium heparin of low molecular weight [SLMWH]
Xa; [3]
  levels of heparin in the blood (anti-Xa activity method): detectable
  peak values of anti-Xa activity in plasma: 0.2-0.4 IU/ml
Xa; oral, capsules (examples 1 and 2), 40 mg heparin, third day, 1 and 2 hours after administration
  peak values of anti-Xa activity in plasma: 0.8-1.2 IU/ml
Xa; oral, capsules (examples 1 and 2), 40 mg heparin, third day
  significant anti-Xa activity in plasma after 6 hours: > 0.3 IU/ml
Xa; oral, capsules, 40 mg heparin, second day, not found after oral
  significant continued anti-Xa activity (>0.1 IU/ml) for 3 hours: only after subcutaneous administration
Xa; subcutaneous injection, 10 mg heparin, second day
  levels of heparin in the blood (anti-Xa activity method): detectable
Xa; [4]
  duration of significant continued anti-Xa activity (>0.1 IU/ml) in plasma: 3 h
  peak values of anti-Xa activity in plasma: 0.2-0.4 IU/ml
Xa; subcutaneous, 10 mg heparin, second day, for 3 hours
  significant continued anti-Xa activity in plasma: > 0.1 IU/ml
Xa; subcutaneous, 10 mg heparin, third day, 1 and 2 hours after administration
  peak values of anti-Xa activity in plasma: 0.8-1.2 IU/ml
Xa; subcutaneous, 10 mg heparin, third day
  significant anti-Xa activity in plasma after 6 hours: > 0.3 IU/ml
Xa; third day vs previous day, oral or subcutaneous, route not distinguished
  basal values of anti-Xa activity before the final dose: significantly higher than the corresponding values on the previous day
[1]
  H1-NMR test of urine: presence of partially disulphated heparin
[2]
  molecular weight of the urine residue (HPLC): 5 kDaltons
